Laboratory results from PMC7978357, “Indole-3-acetic acid is a physiological inhibitor of TORC1 in yeast” (PLoS Genetics, 2021).

Legend:
[1] = molecular target: T1, TORC1 (Tor1 kinase subunit) (Saccharomyces cerevisiae, UniProt P35169); experiment: in vitro radioactive [γ-32P]-ATP kinase assay with purified TORC1, Lst4 loop substrate; enzyme kinetics; assay type: biochemical
T1 construct: TORC1 complex purified from yeast via Tco89-TEV-TAP (quantified with respect to the Tor1 subunit); with Kog1, Lst8, Tco89 (TORC1 subunits)
T1 sequence (P35169 whole entry): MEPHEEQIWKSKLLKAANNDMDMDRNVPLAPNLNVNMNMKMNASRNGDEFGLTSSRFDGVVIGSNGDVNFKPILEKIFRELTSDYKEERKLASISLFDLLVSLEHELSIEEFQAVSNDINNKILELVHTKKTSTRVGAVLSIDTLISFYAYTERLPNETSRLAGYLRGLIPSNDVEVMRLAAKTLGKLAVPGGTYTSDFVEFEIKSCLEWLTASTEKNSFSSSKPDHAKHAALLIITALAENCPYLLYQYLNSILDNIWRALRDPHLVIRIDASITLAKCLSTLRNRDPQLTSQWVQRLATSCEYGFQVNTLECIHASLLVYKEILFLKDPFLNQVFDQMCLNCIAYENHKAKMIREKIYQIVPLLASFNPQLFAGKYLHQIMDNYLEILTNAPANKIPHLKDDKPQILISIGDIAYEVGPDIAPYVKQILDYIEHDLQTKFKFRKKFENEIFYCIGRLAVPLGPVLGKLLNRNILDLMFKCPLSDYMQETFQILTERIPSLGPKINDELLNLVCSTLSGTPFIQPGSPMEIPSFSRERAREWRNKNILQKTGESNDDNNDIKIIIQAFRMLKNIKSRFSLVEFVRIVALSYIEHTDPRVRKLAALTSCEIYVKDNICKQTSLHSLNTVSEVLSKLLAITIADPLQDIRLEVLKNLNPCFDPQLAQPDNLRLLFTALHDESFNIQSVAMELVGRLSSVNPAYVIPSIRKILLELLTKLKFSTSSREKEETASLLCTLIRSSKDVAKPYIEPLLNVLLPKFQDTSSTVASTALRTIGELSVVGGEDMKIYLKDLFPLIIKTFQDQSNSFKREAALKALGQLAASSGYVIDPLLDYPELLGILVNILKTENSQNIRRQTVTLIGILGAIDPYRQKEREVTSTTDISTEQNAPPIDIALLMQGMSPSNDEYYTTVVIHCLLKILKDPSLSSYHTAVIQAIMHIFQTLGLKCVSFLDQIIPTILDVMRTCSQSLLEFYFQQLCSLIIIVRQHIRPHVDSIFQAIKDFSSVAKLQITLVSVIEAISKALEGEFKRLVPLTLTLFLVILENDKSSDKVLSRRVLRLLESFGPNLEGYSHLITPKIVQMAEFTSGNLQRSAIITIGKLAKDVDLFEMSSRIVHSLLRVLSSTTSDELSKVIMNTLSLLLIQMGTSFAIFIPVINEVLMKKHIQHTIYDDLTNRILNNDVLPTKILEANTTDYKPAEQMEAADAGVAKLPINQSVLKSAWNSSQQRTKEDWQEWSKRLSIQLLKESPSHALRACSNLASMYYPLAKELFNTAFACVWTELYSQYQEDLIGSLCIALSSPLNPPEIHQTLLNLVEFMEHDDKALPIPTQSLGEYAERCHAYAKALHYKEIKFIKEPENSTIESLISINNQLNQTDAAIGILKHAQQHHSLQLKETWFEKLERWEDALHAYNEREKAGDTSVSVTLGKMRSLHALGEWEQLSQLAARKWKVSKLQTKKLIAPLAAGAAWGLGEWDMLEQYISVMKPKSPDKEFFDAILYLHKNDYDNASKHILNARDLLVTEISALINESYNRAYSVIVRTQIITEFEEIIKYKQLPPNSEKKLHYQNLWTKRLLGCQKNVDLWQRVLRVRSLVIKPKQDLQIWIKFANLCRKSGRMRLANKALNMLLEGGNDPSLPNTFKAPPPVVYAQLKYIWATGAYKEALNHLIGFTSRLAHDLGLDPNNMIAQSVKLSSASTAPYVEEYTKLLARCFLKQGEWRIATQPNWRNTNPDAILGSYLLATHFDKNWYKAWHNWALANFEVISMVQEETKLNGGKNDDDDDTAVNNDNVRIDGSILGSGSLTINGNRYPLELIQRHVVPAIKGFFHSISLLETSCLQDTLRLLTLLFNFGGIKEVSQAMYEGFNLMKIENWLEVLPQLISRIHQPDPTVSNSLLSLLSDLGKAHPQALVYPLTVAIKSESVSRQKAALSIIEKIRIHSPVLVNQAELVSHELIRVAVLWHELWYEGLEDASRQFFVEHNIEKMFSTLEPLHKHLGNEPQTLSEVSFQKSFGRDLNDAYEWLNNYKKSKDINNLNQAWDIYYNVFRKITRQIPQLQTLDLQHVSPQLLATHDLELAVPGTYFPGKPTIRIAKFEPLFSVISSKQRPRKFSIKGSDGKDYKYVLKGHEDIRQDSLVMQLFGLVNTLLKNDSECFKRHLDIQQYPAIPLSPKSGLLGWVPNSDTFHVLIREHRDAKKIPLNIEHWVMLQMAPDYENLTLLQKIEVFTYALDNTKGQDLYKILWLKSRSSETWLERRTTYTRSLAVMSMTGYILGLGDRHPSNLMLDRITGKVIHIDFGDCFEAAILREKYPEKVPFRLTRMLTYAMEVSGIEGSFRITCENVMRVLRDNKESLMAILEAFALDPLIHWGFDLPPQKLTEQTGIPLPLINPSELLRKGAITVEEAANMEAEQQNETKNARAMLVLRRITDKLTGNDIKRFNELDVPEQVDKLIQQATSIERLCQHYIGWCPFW
T1 sequence (P38873 whole entry partner): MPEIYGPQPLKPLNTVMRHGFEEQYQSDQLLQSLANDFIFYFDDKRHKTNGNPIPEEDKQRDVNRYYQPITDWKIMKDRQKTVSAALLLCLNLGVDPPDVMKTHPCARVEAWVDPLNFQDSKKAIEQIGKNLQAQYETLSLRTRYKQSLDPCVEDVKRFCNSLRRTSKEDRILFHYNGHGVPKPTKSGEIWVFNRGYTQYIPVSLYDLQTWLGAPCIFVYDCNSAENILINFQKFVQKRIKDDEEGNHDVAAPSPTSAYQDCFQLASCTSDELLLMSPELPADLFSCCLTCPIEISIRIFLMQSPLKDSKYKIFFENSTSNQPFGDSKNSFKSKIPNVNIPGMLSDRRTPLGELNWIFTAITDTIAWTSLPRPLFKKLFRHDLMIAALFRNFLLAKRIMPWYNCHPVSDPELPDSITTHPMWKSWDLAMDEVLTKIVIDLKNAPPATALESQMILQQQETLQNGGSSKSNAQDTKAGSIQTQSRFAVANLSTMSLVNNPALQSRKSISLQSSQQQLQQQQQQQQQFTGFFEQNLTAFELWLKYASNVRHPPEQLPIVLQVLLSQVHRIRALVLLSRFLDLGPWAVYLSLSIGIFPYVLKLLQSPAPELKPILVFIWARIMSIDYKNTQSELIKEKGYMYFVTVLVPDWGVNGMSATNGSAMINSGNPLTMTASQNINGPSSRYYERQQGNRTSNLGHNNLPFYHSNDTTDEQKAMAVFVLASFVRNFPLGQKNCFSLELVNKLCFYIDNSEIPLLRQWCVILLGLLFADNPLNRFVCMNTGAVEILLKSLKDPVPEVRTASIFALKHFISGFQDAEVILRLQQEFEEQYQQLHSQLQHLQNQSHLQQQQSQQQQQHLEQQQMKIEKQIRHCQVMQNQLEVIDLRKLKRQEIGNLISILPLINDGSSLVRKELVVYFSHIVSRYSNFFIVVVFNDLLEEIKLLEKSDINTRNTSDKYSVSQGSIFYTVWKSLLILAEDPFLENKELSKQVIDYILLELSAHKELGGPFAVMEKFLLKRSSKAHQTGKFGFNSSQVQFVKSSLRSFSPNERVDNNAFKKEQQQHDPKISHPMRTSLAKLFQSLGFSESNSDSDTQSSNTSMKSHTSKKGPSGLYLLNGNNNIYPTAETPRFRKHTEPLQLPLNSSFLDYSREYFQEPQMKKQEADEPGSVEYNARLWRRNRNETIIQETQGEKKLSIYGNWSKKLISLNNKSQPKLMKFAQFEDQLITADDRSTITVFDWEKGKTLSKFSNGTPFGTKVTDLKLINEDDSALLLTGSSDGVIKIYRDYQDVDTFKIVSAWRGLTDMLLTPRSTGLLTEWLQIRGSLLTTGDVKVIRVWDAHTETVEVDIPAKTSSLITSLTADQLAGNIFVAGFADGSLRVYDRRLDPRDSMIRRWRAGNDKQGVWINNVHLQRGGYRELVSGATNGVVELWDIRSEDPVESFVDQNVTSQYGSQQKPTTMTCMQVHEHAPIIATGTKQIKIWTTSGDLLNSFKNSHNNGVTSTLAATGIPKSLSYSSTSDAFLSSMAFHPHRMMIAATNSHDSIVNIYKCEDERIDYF
T1 sequence (P41318 whole entry partner): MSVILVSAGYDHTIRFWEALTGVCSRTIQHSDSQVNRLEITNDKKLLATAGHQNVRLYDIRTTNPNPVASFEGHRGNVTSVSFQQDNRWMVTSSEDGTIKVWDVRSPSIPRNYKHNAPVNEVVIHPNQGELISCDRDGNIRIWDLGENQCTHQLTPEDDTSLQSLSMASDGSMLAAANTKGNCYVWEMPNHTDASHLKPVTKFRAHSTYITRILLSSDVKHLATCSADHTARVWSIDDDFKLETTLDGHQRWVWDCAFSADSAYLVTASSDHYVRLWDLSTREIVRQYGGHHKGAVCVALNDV

[2] = tested on: Nc1ncnc2c1ncn2[C@@H]1O[C@H](COP(=O)(O)OP(=O)(O)OP(=O)(O)O)[C@@H](O)[C@H]1O; experiment: purified protein; settings: Mg2+

| Ki [1] [µM] | Molecule | Km [2] [µM] |
| --- | --- | --- |
| 2.4 | O=C(O)Cc1c[nH]c2ccccc12 [IAA, Indole-3-acetic acid] | – |
| – | TORC1 (Tor1 kinase subunit) (Saccharomyces cerevisiae S288C) | 50.5 |
